# Laboratory results reported in PMC8328003 (ACS chemical neuroscience, 2021).
# “And” between values parts separate entries of the source, which are not always exact repeats. Equal values may be shown once. Read-outs that look alike come from different tables or passages of the source.
# How the values were obtained:
# [1] = target: mKOR (Mus musculus, UniProt P33534); test: [35S]GTPγS functional assay, CHO membranes; format: biochemical; settings: for mKOR Emax: relative to U50,488H at 1000 nM
# [2] = target: mouse mu opioid receptor (mMOR) (Mus musculus, UniProt P42866); test: Competition binding against 125I-IBNtxA, CHO cell membranes; settings: for Ki: 125I-IBNtxA (0.1 nM), CHO membranes
# [3] = target: mouse kappa opioid receptor (mKOR) (Mus musculus, UniProt P33534); test: as above
# [4] = target: T1, mDOR (Mus musculus, UniProt P32300); test: as above
# [5] = target: T1, mDOR; test: [35S]GTPγS functional assay, CHO membranes; format: biochemical; settings: for mDOR Emax: relative to DPDPE at 1000 nM
# [6] = target: mMOR (Mus musculus, UniProt P42866); test: [35S]GTPγS functional assay, CHO membranes; format: biochemical; settings: for mMOR Emax: relative to DAMGO at 1000 nM
# [7] = target: T2, hMOR (Homo sapiens, UniProt P35372); test: BRET βarrestin-2 recruitment, HEK293T cells; format: cell-based
# [8] = tested on: C57BL/6J mice; test: CLAMS locomotor activity; format: in vivo, mouse; settings: 100 nmol, i.c.v., 180 min, versus vehicle
# [9] = target: human mu opioid receptor (hMOR) (Homo sapiens, UniProt P35372); test: cell-based; format: cell-based
# [10] = target: T3, hDOR (Homo sapiens, UniProt P41143); test: BRET βarrestin-2 recruitment, HEK293T cells; format: cell-based; settings: for Emax% ± SEM βarrestin-2 recruitment hDOR: normalized to DPDPE
# [11] = target: T3, hDOR; test: BRET Gi-1 activation, HEK293T cells; format: cell-based; settings: for Emax% ± SEM Gi-1 activation hDOR: normalized to control agonist (DPDPE; SNC80 in Figure 6G)
# [12] = tested on: C57BL/6J mice; test: 55 °C warm-water tail-withdrawal assay; format: in vivo, mouse; settings: for antinociception ED50 (and 95% C.I.): WT C57BL/6J mice, from peak effect
# [13] = target: hMOR; settings: read-out: binding affinity at hMOR; cited from earlier work
# [14] = target: human kappa opioid receptor (hKOR) (Homo sapiens, UniProt P41145); test: BRET Gi-1 activation, HEK293T cells; format: cell-based; settings: for pEC50 ± SEM Gi-1 activation hKOR / EC50: BRET; for EC50: read-out: EC50 Gi-1 activation hKOR
# [15] = tested on: C57BL/6J mice; test: CLAMS breathing rate; format: in vivo, mouse; settings: 100 nmol, i.c.v., 180 min, versus vehicle
# [16] = target: T4, hKOR (Homo sapiens, UniProt P41145); test: BRET βarrestin-2 recruitment, HEK293T cells; format: cell-based; settings: for pEC50 ± SEM βarrestin-2 recruitment hKOR / EC50: BRET; for EC50: read-out: EC50 βarrestin-2 recruitment hKOR
# [17] = target: T2, hMOR; test: NIMH-PDSP radioligand binding; settings: read-out: affinity Ki hMOR
# [18] = target: T5, hα2A (Homo sapiens, UniProt P08913); test: NIMH-PDSP radioligand binding; settings: read-out: affinity Ki hα2A
# T5 sequence (P08913 1-465): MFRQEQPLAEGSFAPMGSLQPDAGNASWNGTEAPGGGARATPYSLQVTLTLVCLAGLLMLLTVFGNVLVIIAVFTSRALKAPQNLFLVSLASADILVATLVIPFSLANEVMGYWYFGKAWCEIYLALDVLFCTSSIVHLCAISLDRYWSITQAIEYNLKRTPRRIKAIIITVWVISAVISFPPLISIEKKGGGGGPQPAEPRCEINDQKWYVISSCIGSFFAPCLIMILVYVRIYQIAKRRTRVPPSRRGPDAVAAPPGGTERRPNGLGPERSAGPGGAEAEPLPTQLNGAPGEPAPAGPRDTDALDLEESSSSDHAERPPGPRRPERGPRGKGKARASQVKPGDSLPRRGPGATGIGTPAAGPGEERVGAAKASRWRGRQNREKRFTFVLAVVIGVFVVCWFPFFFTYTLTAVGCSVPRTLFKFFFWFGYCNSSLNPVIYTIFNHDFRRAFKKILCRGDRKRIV
# [19] = target: T4, hKOR; test: NIMH-PDSP radioligand binding; settings: read-out: affinity Ki hKOR
# [20] = target: hDAT (Homo sapiens, UniProt Q01959); test: NIMH-PDSP radioligand binding; settings: read-out: affinity Ki hDAT
# [21] = target: hH1 (Homo sapiens, UniProt P35367); test: NIMH-PDSP radioligand binding; settings: read-out: affinity Ki hH1
# [22] = target: hSERT (Homo sapiens, UniProt P31645); test: NIMH-PDSP radioligand binding; settings: read-out: affinity Ki hSERT
# [23] = target: T2, hMOR; format: cell-based
# [24] = target: T2, hMOR; format: cell-based; remark: listed apart in the source
# [25] = target: hNET (Homo sapiens, UniProt P23975); test: NIMH-PDSP radioligand binding; settings: read-out: affinity Ki hNET
# [26] = target: hNMDA; test: NIMH-PDSP radioligand binding; parameters: species or system human; settings: read-out: affinity Ki hNMDA
# [27] = tested on: MOR; settings: ex vivo; cited from earlier work
# [28] = affinity (Ki) mKOR, 125I-IBNtxA (0.1 nM)
# [29] = affinity (Ki) mDOR, 125I-IBNtxA (0.1 nM)
# [30] = i.c.v., MOR KO / KOR KO mice versus WT
Compound,mKOR Emax [1],Ki ([2]; affinity (Ki) mMOR),"Ki [3, 28] [µM]","Ki [4, 29] [nM]",mDOR Emax [5],mMOR Emax [6],mKOR EC50 ([1]; [35S]GTPγS),locomotor effect [8],"fold less potent than DAMGO, Gi-1 hMOR [9] [fold]","receptor dependence of antinociception [12, 30]",antinociception ED50 (and 95% C.I.) ([12]; i.c.v.),effect on breath rate [15],Emax% ± SEM Gi-1 activation hMOR [9],Emax% ± SEM βarrestin-2 recruitment hDOR [10] [%],Emax% ± SEM Gi-1 activation hDOR [11] [%],Ki [18] [nM],Ki [19] [nM],pEC50 ± SEM Gi-1 activation hKOR [14],"Emax% ± SEM Gi-1 activation hKOR ([14]; normalized to U50,488H) [%]",EC50 [14] [nM],other results
CC[C@@H]1CN2CC[C@]3(C(=O)Nc4ccccc43)[C@@H]2C[C@@H]1/C(=C\OC)C(=O)OC [corynoxine B],no activity,5010 ± 388 nM,> 1,1680 ± 261,no activity,no activity,,,,,,,,,,,,,,,"Ki ([3]; affinity (Ki) mKOR, 125I-IBNtxA (0.1 nM), μM): > 10 µM"
CC[C@@H]1CN2CC[C@@]3(C(=O)Nc4ccccc43)[C@@H]2C[C@@H]1/C(=C\OC)C(=O)OC [corynoxine],no activity,140 nM and 141 nM,3.08 ± 1.73,1270 ± 226,no activity,136.4 ± 3.3%,no activity,did not produce significant hyperlocomotion,58,MOR dependent,3.43 (0.53–6.41) nmol,no depression of breath rate,,,,,,,,,"Emax ([7]; HEK-293T, read-out: Emax% ± SEM βarrestin-2 recruitment hMOR): < 20%; EC50 [9]: 1630 nM; Emax ([9]; HEK-293T, read-out: Emax% ± SEM Gi-1 activation hMOR): 96.5 ± 4.69%; Emax ([10]; HEK-293T, read-out: Emax% ± SEM βarrestin-2 recruitment hDOR): < 20%; Emax ([11]; HEK-293T, read-out: Emax% ± SEM Gi-1 activation hDOR): < 20%; Ki [13]: 16.4 nM; Emax ([14]; HEK-293T, read-out: Emax% ± SEM Gi-1 activation hKOR): < 20%; effect on breath rate ([15]; listed as Corynoxine): increase in breath rates; Emax ([16]; HEK-293T, read-out: Emax% ± SEM βarrestin-2 recruitment hKOR): < 20%; EC50 [6]: 203 ± 4.4 nM; Emax at 1 µM ([6]; read-out: mMOR Emax, relative to DAMGO at 1000 nM): 136%"
C=C[C@H]1CN2CCc3c([nH]c4cccc(OC)c34)[C@H]2C[C@@H]1/C(=C\OC)C(=O)OC [isopaynantheine],93.5 ± 5%,,,,no activity,50 ± 5%,,,,MOR independent and KOR dependent,,,< 20%,< 20,< 20,2150,27,6.25 ± 0.066,80,560,"Emax% ± SEM βarrestin-2 recruitment hMOR ([7]; normalized to DAMGO): < 20%; Ki [17]: 122 nM; EC50 ([1]; read-out: mKOR EC50, [35S]GTPγS): 282 ± 18 nM; Ki ([2]; read-out: affinity (Ki) mMOR): 91.8 ± 5.8 nM; Ki ([3]; read-out: affinity (Ki) mKOR, 125I-IBNtxA (0.1 nM)): 0.325 µM and 0.326 µM; Ki [20]: 5070 nM; Ki ([4]; read-out: affinity (Ki) mDOR, 125I-IBNtxA (0.1 nM)): 823 ± 127 nM; Ki [21]: 206 nM; Emax% ± SEM Gi-1 activation hKOR ([14]; normalized to U50,488H, listed as Isopaynantheine): 80.5 ± 2.9%; Ki [22]: 5110 nM; pEC50 ± SEM βarrestin-2 recruitment hKOR [16]: 6.22 ± 0.43; Emax% ± SEM βarrestin-2 recruitment hKOR ([16]; normalized to U50,488H): < 20%; EC50 [16]: 599 nM; EC50 ([6]; read-out: mMOR EC50, [35S]GTPγS): 192 ± 5.8 nM; Emax% ± SEM Gi-1 antagonism at MOR [23]: 156.91 ± 13.49%; Emax% ± SEM βarrestin-2 antagonism at MOR [24]: 106 ± 8.67%"
CC[C@H]1CN2CCc3c([nH]c4cccc(OC)c34)[C@H]2C[C@@H]1/C(=C\OC)C(=O)OC [mitraciliatine],,,,,,,,no significant hyperlocomotion,,"MOR dependent and, surprisingly, independent of KOR",,no respiratory depression,,< 20,,2150,73,6.57 ± 0.06,114.32 ± 2.42,269,"maximal antinociception (ceiling effect, % MPE) ([12]; i.c.v., WT mice, mitraciliatine at 100 nmol): 67%; effect on breath rate ([15]; listed as Mitraciliatine): increase in breath rates; pEC50 ± SEM βarrestin-2 recruitment hKOR [16]: 6.42 ± 0.06; Emax% ± SEM βarrestin-2 recruitment hKOR ([16]; normalized to U50,488H): 104%; Emax% ± SEM βarrestin-2 recruitment hKOR ([16]; normalized to U50,488H, listed as Mitraciliatine): 104.13 ± 2.57%; EC50 [16]: 383 nM; Ki [25]: 6600 nM"
"CN1CC[C@]23c4c5ccc(O)c4O[C@H]2[C@@H](O)C=C[C@H]3[C@H]1C5 [morphine, reference compound]",,,,,,,,significant locomotor effect,,,4.77 (1.49–28.8) nmol,significant decrease in breath rate,,,,,,,,,
corynantheidine,no activity,,,,no activity,,no activity,,20,,,,37% and 37.2 ± 4.30%,< 20,< 20,,,,,,"Emax% ± SEM βarrestin-2 recruitment hMOR [7]: < 20%; fold higher mMOR affinity than mitragynine ([2]; same binding assay): ~4 fold; Ki [26]: 83 nM; agonist action in guinea pig ileum [27]: no agonist actions; maximal antinociception (ceiling effect, % MPE) ([12]; mouse, in vivo): 50%; receptor dependence of antinociception ([12]; mouse, in vivo): MOR dependent; Emax% ± SEM Gi-1 activation hKOR [14]: < 20%; mDOR EC50 ([5]; [35S]GTPγS): no activity; Emax% ± SEM βarrestin-2 recruitment hKOR [16]: < 20%; fold less potent than DAMGO, [35S]GTPγS ([6]; mMOR): about 30 fold; mMOR Emax ([6]; listed as corynanthedine): 74.13 ± 1.24%"
